“And” between values parts separate entries of the source, which are not always exact repeats. Identical values can stand only once.
Assays:
[1] = test system: Fecal Coliform; test: Disinfection of wastewater, fecal coliform count; type: cell-based; conditions: 50 microliters 35% H2O2 (with or without 50 microliters Fe-GLC), after twenty minutes; control 2200
[2] = test system: heterotrophic bacteria; test: Disinfection of wastewater with chelated iron compounds, total heterotrophic bacteria counts; type: cell-based; conditions: for Test 1 CFUs/ml, 19.8 ppm H2O2 6 ppm Fe-Chelant / Test 2 CFUs/ml, 39.6 ppm H2O2 12 ppm Fe-Chelant / Test 3 CFUs/ml, 12 ppm Fe-Chelant: 30 minutes, raw average 18,188 CFUs; for Test 3 CFUs/ml, 12 ppm Fe-Chelant: chelant alone, no H2O2; for disinfection effect, in words: compared with hydrogen peroxide alone
Experimental: A 10 gallon sample of wastewater from the Massaponax Wastewater Plant was collected and allowed to sit undisturbed for thirty minutes. The clarified supernatant was then pored off of the top of the settled solids within the sample. The supernatant was then mixed and four samples were collected to determine untreated heterotrophic bacteria counts. […] were dissolved in distilled water at 0.4334M. Ferric chloride was added in amounts to achieve saturation of chelant sites on the respective chelants. […] Twenty individual liter samples of supernatant were then decanted from the well-mixed wastewater sample for testing. Four chelated iron products with peroxide were tested at two test concentrations and compared to samples receiving peroxide only and iron chelate only. […] Individual samples were dosed with the respective additives, mixed with a magnetic stir bar and allowed to react for 30 minutes. Samples were then decanted to sterile sample containers containing sodium thiosulfate to stop the oxidation process and preserve the sample. Samples were then placed in a refrigerator until all samples were finished. Samples were packaged in a standard cooler with ice packs and sent via overnite delivery to ProChem Labs in Lynchburg, Va. for analysis for total heterotrophic bacteria counts.

[3] = Treatment of sulfides in municipal wastewater with ferric chelants and hydrogen peroxide; conditions: for sulfide reduction after 15 minutes: 2.5:1.0 peroxide to sulfide, 105.8 ppm hydrogen peroxide, 20 ppm chelant where added, peroxide alone averaged; for sulfide treatment after 15 minutes: 37.8 ppm hydrogen peroxide, 12 ppm chelant where added; for Sulfide Remaining, Dose 1 12 ppm Chelant / Sulfide Remaining, Dose 2 6 ppm Chelant: 37.8 ppm H2O2, start 25.4 ppm sulfide; for Sulfide Remaining, Dose 1 20 ppm Chelant / Sulfide Remaining, Dose 2 10 ppm Chelant: 105.8 ppm H2O2, start 42.3 ppm sulfide; for Percentage of Sulfide Treated, Dose 1 12 ppm Chelant 37.8 ppm H2O2 / Percentage of Sulfide Treated, Dose 2 6 ppm Chelant 37.8 ppm H2O2 / Percentage of Sulfide Treated, Dose 1 20 ppm Chelant 105.8 ppm H2O2 / Percentage of Sulfide Treated, Dose 2 10 ppm Chelant 105.8 ppm H2O2: after 30 minutes; for Percentage of Sulfide Treated, Dose 1 12 ppm Chelant 37.8 ppm H2O2 / Percentage of Sulfide Treated, Dose 2 6 ppm Chelant 37.8 ppm H2O2: 1.5:1.0 ratio of peroxide to sulfide; for Percentage of Sulfide Treated, Dose 1 20 ppm Chelant 105.8 ppm H2O2 / Percentage of Sulfide Treated, Dose 2 10 ppm Chelant 105.8 ppm H2O2: 2.5:1.0 ratio of peroxide to sulfide; for sulfide treatment compared with hydrogen peroxide alone, in words: over 30 minutes of treatment
[4] = Comparative treatment of 2,4-D in water, GC analysis; conditions: after four hours
[5] = Treatment of sulfides in municipal wastewater with ferric chelants and ozone; conditions: 4 ppm ferric chelant where added; for sulfide remaining: ozone at ~13.4 ppm; for Overall total percentage of sulfide reduction: ozone
[6] = Series One, contact time 5 minutes
[7] = Series One, contact time 15 minutes
[8] = Series One, contact time 30 minutes
[9] = Series Two, 20 ppm chelant, no H2O2, start 42.3 ppm sulfide, contact time 30 minutes
[10] = Series Two, contact time 5 minutes
[11] = Series Two, contact time 15 minutes
[12] = Series Two, contact time 30 minutes
[13] = start 13.70, contact time 5 minutes
[14] = start 13.70, contact time 10 minutes
[15] = start 13.70, contact time 20 minutes
[16] = Series One, contact time 5 minutes, listed as Ferric NTA

Compound | Test 1 CFUs/ml, 19.8 ppm H2O2 6 ppm Fe-Chelant [2] [CFUs/ml] | Test 2 CFUs/ml, 39.6 ppm H2O2 12 ppm Fe-Chelant [2] [CFUs/ml] | Test 3 CFUs/ml, 12 ppm Fe-Chelant [2] | disinfection effect, in words [2] | sulfide reduction after 15 minutes [3] [%] | sulfide treatment after 15 minutes [3] [%] | Sulfide Remaining, Dose 4 Chelant Only [3, 9] [ppm] | Sulfide Remaining, Dose 1 20 ppm Chelant [3, 10] [ppm] | Sulfide Remaining, Dose 2 10 ppm Chelant [3, 10] [ppm] | Sulfide Remaining, Dose 1 20 ppm Chelant [3, 11] [ppm] | Sulfide Remaining, Dose 2 10 ppm Chelant [3, 11] [ppm] | Sulfide Remaining, Dose 1 20 ppm Chelant [3, 12] [ppm] | Sulfide Remaining, Dose 2 10 ppm Chelant [3, 12] [ppm] | Percentage of Sulfide Treated, Dose 1 12 ppm Chelant 37.8 ppm H2O2 [3] | Percentage of Sulfide Treated, Dose 2 6 ppm Chelant 37.8 ppm H2O2 [3] | Percentage of Sulfide Treated, Dose 1 20 ppm Chelant 105.8 ppm H2O2 [3] | Percentage of Sulfide Treated, Dose 2 10 ppm Chelant 105.8 ppm H2O2 [3] | sulfide treatment compared with hydrogen peroxide alone, in words [3] | sulfide remaining [5, 13] [ppm] | Overall total percentage of sulfide reduction [5] [%] | also measured
ferric gluconate [Fe-GLC] | 98 | 28 | 22,600 CFUs/ml | better than peroxide alone | 86.8 | 70 | 43.0 | 18.6 | 23.5 | 5.6 | 7.3 | 1.1 | 2.2 | 83.1 | 70.8 | 97.4 | 94.8 | noticeably better | 3.40 | 90 | Fecal Coliform [1]: no detectable CFUs; Sulfide Remaining, Dose 1 12 ppm Chelant [3, 6]: 14.2 ppm; Sulfide Remaining, Dose 2 6 ppm Chelant [3, 6]: 15.9 ppm; Sulfide Remaining, Dose 1 12 ppm Chelant [3, 7]: 7.3 ppm; Sulfide Remaining, Dose 2 6 ppm Chelant [3, 7]: 11.5 ppm; Sulfide Remaining, Dose 1 12 ppm Chelant [3, 8]: 4.3 ppm; Sulfide Remaining, Dose 2 6 ppm Chelant [3, 8]: 7.4 ppm; Sulfide Remaining, Dose 4 Chelant Only ([3]; Series One, no H2O2, start 25.4 ppm sulfide, contact time 30 minutes): 24.9 ppm; effect on 2,4-D, in words [4]: substantially reduced; sulfide remaining [5, 14]: 2.80 ppm; sulfide remaining [5, 15]: 1.40 ppm; Overall total percentage of sulfide reduction ([5]; listed as Fe-Gluconate): 90%
O=C([O-])CN(CCO)CC(=O)[O-].[Fe+3] [Fe-HEIDA] | 1350 | 84 | 16,700 CFUs/ml | very little effect on viable cells beyond that exhibited by hydrogen peroxide alone | – | – | – | – | – | – | – | – | – | 44.1 | 41.3 | 69.5 | 66.9 | did not perform well | – | 60 | Overall total percentage of sulfide reduction ([5]; listed as ferric HEIDA): 60%
O=C([O-])CN(CCN(CC(=O)[O-])CC(=O)[O-])CC(=O)[O-].[Fe+3] [Fe-EDTA] | 360 | 59 | 18,200 CFUs/ml | very little effect on viable cells beyond that exhibited by hydrogen peroxide alone | 60 | 61 | – | – | – | – | – | – | – | 68.5 | 64.2 | 87.5 | 83.7 | noticeably better | – | 64 | Overall total percentage of sulfide reduction ([5]; listed as ferric EDTA): 64%
O=C([O-])CN(CC(=O)[O-])CC(=O)[O-].[Fe+3] [Fe-NTA] | 370 | 75 | 18,300 CFUs/ml | very little effect on viable cells beyond that exhibited by hydrogen peroxide alone | 70.2 | 73 | 41.0 | 23.3 | 26.7 | 12.6 | 16.3 | 2.8 | 4.2 | 78.3 | 68.9 | 93.4 | 90.0 | noticeably better | 3.40 | 91 | Sulfide Remaining, Dose 1 12 ppm Chelant [3, 16]: 15.2 ppm and 20.0 ppm; Sulfide Remaining, Dose 2 6 ppm Chelant [3, 16]: 15.9 ppm and 20.3 ppm; Sulfide Remaining, Dose 2 6 ppm Chelant ([3]; Series One, contact time 15 minutes, listed as Ferric NTA): 12.6 ppm and 16.4 ppm; Sulfide Remaining, Dose 2 6 ppm Chelant ([3]; Series One, contact time 30 minutes, listed as Ferric NTA): 7.9 ppm and 14.9 ppm; Sulfide Remaining, Dose 4 Chelant Only ([3]; Series One, no H2O2, start 25.4 ppm sulfide, contact time 30 minutes, listed as Ferric NTA): 24.6 ppm and 25.2 ppm; sulfide remaining [5, 14]: 1.90 ppm; sulfide remaining [5, 15]: 1.30 ppm; Overall total percentage of sulfide reduction ([5]; listed as ferric NTA): 91%

Reference: patent US9701556B1, “Compositions, methods, and systems for reducing contamination” (priority 2004, dated 2017)
